What was measured:
[1] = tested on: ryegrass, Italian; test: Test C postemergence; type: in vivo, Lolium multiflorum; conditions: Postemergence, 1000 g ai/ha
Summary of the method: (§1)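 Soil-applied (pre) and foliar (post, 1–2 leaf, 2–10 cm) sprays; surfactant-containing non-phytotoxic solvent vehicle; loam/sand substrate. Readout: visual % control at 10 d, greenhouse, versus untreated.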

[2] = tested on: kochia; test: Test C preemergence; type: in vivo, Bassia scoparia; conditions: Preemergence, 1000 g ai/ha; visual rating after 10 days, 0 to 100 scale (0 no effect, 100 complete control)
Summary of the method: as §1

[3] = tested on: pigweed, palmer; test: Test C preemergence; type: in vivo, Amaranthus palmeri; conditions: Preemergence, 1000 g ai/ha; visual rating after 10 days, 0 to 100 scale (0 no effect, 100 complete control)
Summary of the method: as §1

[4] = tested on: ryegrass, Italian; test: Test C preemergence; type: in vivo, Lolium multiflorum; conditions: Preemergence, 1000 g ai/ha; visual rating after 10 days, 0 to 100 scale (0 no effect, 100 complete control)
Summary of the method: as §1

[5] = tested on: ragweed; test: Test C preemergence; type: in vivo, Ambrosia artemisiifolia; conditions: Preemergence, 1000 g ai/ha; visual rating after 10 days, 0 to 100 scale (0 no effect, 100 complete control)
Summary of the method: as §1

[6] = tested on: ragweed; test: Test C postemergence; type: in vivo, Ambrosia artemisiifolia; conditions: Postemergence, 1000 g ai/ha
Summary of the method: as §1

[7] = tested on: barnyardgrass; test: Test C preemergence; type: in vivo, Echinochloa crusgalli; conditions: Preemergence, 1000 g ai/ha; visual rating after 10 days, 0 to 100 scale (0 no effect, 100 complete control)
Summary of the method: as §1

[8] = tested on: blackgrass; test: Test C preemergence; type: in vivo, Alopecurus myosuroides; conditions: Preemergence, 1000 g ai/ha; visual rating after 10 days, 0 to 100 scale (0 no effect, 100 complete control)
Summary of the method: as §1

[9] = tested on: barnyardgrass; test: Test C postemergence; type: in vivo, Echinochloa crusgalli; conditions: Postemergence, 1000 g ai/ha
Summary of the method: as §1

[10] = tested on: pigweed, palmer; test: Test C postemergence; type: in vivo, Amaranthus palmeri; conditions: Postemergence, 1000 g ai/ha
Summary of the method: as §1

[11] = tested on: green foxtail; test: Test C postemergence; type: in vivo, Setaria viridis; conditions: Postemergence, 1000 g ai/ha
Summary of the method: as §1

[12] = tested on: horseweed; test: Test C postemergence; type: in vivo, Erigeron canadensis; conditions: Postemergence, 1000 g ai/ha
Summary of the method: as §1

[13] = tested on: corn; test: Test C postemergence; type: in vivo, Zea mays; conditions: Postemergence, 1000 g ai/ha, 10 days, visual 0 to 100 scale (0 no effect, 100 complete control)
From the text: (§2) Seeds of plant species selected from barnyardgrass (Echinochloa crusgalli), blackgrass (Alopecurus myosuroides), corn (Zea mays), foxtail, giant (giant foxtail, Setaria faberi), green foxtail (Setaria viridis), goosegrass (Eleusine indica), kochia (Bassia scoparia), oat, wild (wild oat, Avena fatua), pigweed, palmer (palmer amaranth, palmer pigweed, Amaranthus palmeri), Pigweed, Redroot (redroot pigweed, Amaranthus retroflexus), ragweed (common ragweed, Ambrosia artemisiifolia), ryegrass, Italian ([…] ryegrass, Lolium multiflorum), soybean (Glycine max), and wheat (Triticum aestivum) were planted into a blend of loam soil and sand and treated preemergence with a directed soil spray using test chemicals formulated in a non-phytotoxic solvent mixture which included a surfactant. At the same time, plants selected from these crops and weed species and also galium (catchweed bedstraw, Galium aparine) and horseweed (Erigeron canadensis) were planted in pots containing the same blend of loam soil and sand and treated with postemergence applications of test chemicals formulated in the same manner. Plants ranged in height from 2 to 10 cm and were in the one- to two-leaf stage for the postemergence treatment. Treated plants and untreated controls were maintained in a greenhouse for 10 days, after which time all treated plants were compared to untreated controls and visually evaluated for injury. Plant response ratings, summarized in Table C, are based on a 0 to 100 scale where 0 is no effect and 100 is complete control. A dash (-) response means no test result.

[14] = tested on: blackgrass; test: Test C postemergence; type: in vivo, Alopecurus myosuroides; conditions: Postemergence, 1000 g ai/ha
Summary of the method: as §1

[15] = tested on: green foxtail; test: Test C preemergence; type: in vivo, Setaria viridis; conditions: Preemergence, 1000 g ai/ha; visual rating after 10 days, 0 to 100 scale (0 no effect, 100 complete control)
Summary of the method: as §1

[16] = tested on: galium; test: Test C postemergence; type: in vivo, Galium aparine; conditions: Postemergence, 1000 g ai/ha
Summary of the method: as §1

[17] = tested on: corn; test: Test C preemergence; type: in vivo, Zea mays; conditions: Preemergence, 1000 g ai/ha; visual rating after 10 days, 0 to 100 scale (0 no effect, 100 complete control)
From the text: as §2

[18] = tested on: kochia; test: Test C postemergence; type: in vivo, Bassia scoparia; conditions: Postemergence, 1000 g ai/ha
Summary of the method: as §1

[19] = 10 days, visual 0 to 100 scale (0 no effect, 100 complete control)
[20] = 0 to 100 scale, 0 no effect, 100 complete control

| Compound | Plant response rating, Ryegrass, Italian [1, 19] | Plant response rating, Kochia [2] | Plant response rating, Pigweed, Palmer [3] | Plant response rating, Ryegrass, Italian [4] | Plant response rating, Ragweed [5] | Plant response rating, Ragweed [6, 19] | Plant response rating, Barnyardgrass [7] | Plant response rating, Blackgrass [8] | Plant response rating, Barnyardgrass [9, 20] | Plant response rating, Pigweed, Palmer [10, 19] | Plant response rating, Foxtail, Green [11, 19] | Plant response rating, Horseweed [12, 19] | Plant response rating, Blackgrass [14, 19] | Plant response rating, Foxtail, Green [15] | Plant response rating, Galium [16, 19] | Plant response rating, Kochia [18, 19] | Plant response rating, Ryegrass, Italian [1, 20] | Plant response rating, Ragweed [6, 20] | Plant response rating, Pigweed, Palmer [10, 20] | Plant response rating, Foxtail, Green [11, 20] | further results |
| --- | --- | --- | --- | --- | --- | --- | --- | --- | --- | --- | --- | --- | --- | --- | --- | --- | --- | --- | --- | --- | --- |
| C[C@H]1CN(C(=O)c2cccc(-c3cnnn3C)c2)c2cccc(Cl)c2O1 [Compound 239] | 0 | 30 | 80 | 70 | 0 | 50 | 50 | 30 | 30 | 70 | 30 | 30 | 10 | 100 | 70 | 40 | – | – | – | – | Plant response rating, Corn [13]: 0; Plant response rating, Corn [17]: 0 |
| Cc1cnc(-c2cccc(C(=O)N3C[C@H](C)Oc4c(C)cccc43)c2)cn1 [Compound 162] | – | 0 | 30 | 70 | 0 | – | 60 | 30 | 10 | – | – | – | – | 90 | – | – | 40 | 20 | 20 | 10 | Plant response rating, Horseweed [12, 20]: 0; Plant response rating, Blackgrass [14, 20]: 0; Plant response rating, Galium [16, 20]: 50; Plant response rating, Kochia [18, 20]: 70 |
| Cc1ccc(-c2cccc(C(=O)N3C[C@H](C)Oc4c(C)cccc43)c2)s1 [Compound 244] | 80 | 0 | 0 | 90 | 50 | 20 | 50 | 0 | 20 | 60 | 20 | 90 | 20 | 50 | 60 | 50 | – | – | – | – | – |
| Cc1cc(-c2cccc(C(=O)N3C[C@H](C)Oc4c(C)cccc43)c2)ccn1 [Compound 163] | – | 0 | 0 | 20 | 0 | – | 0 | 10 | 0 | – | – | – | – | 10 | – | – | 0 | 20 | 30 | 10 | Plant response rating, Horseweed [12, 20]: 0; Plant response rating, Blackgrass [14, 20]: 20; Plant response rating, Galium [16, 20]: 0; Plant response rating, Kochia [18, 20]: 50 |
| Cc1cccc2c1O[C@@H](C)CN2C(=O)c1cccc(-n2cncc2Br)c1 [Compound 297] | 0 | 0 | 0 | 0 | 0 | 0 | 0 | 0 | – | 0 | 0 | 20 | 0 | 0 | 0 | 30 | – | – | – | – | Plant response rating, Barnyardgrass [9, 19]: 0 |
| Cc1ccc(-c2cccc(C(=O)N3C[C@H](C)Oc4c(C)cccc43)c2)cn1 [Compound 159] | – | 0 | 20 | 20 | 0 | – | 0 | 0 | 10 | – | – | – | – | 20 | – | – | 40 | 60 | 20 | 30 | Plant response rating, Horseweed [12, 20]: 0; Plant response rating, Blackgrass [14, 20]: 0; Plant response rating, Galium [16, 20]: 50; Plant response rating, Kochia [18, 20]: 40 |

Source: US20260262643A1, “HERBICIDAL BENZOXAZINES” (FMC CORPORATION, priority 2022, published 2026)
